Among the data in patent publication US11040952B2, “Phthalazinone compound, method for preparation thereof, pharmaceutical composition thereof, and use thereof” (SHANGHAI INSTITUTE OF MATERIA MEDICA, CHINESE ACADEMY OF …, priority 2017, dated 2021) are CC50 and IC50 values, retold here.

Data set [1] in a line: MTT assay for cytotoxicity. In kind it is cell-based, Human. As to conditions: human, HepG2.2.15 cells, half (50%) lethal concentration. As to the method: (§1) Human hepatoblastoma cell line HepG2.2.15 stably transfected with full-length HBV (provided by Shanghai Institute of Materia Medica, Chinese Academy of Sciences)
(§2) HepG2.2.15 cells were cultured and passaged according to conventional methods. DMEM containing 10% (v/v) bovine serum and the selective antibiotic G418 was used as a medium, the cells were cultured in an incubator at 37° C. under 5% CO2 for 8 days (the medium was exchanged on the 4th day).
(§3) The test compounds were formulated with DMSO into a 40 mM stock solution, which was then prepared into a solution at the defined highest concentration using a DMEM medium containing 10% Hyclone™ Fetal Bovine Serum, followed by diluting the same; the positive drug was lamivudine, which was also prepared into a solution at the defined concentration with the DMEM medium containing 10% Hyclone™ Fetal Bovine Serum.
HepG2.2.15 cells were seeded at 5×10^3 cells/well in a 96-well plate, and cultured for eight days in the presence of the compounds according to the above method, and then 200 μl of the supernatant was taken out, followed by addition of the MTT solution. After 4 hours of culture, a lysate was added. After 12 hours of culture, the OD570 was measured on a microplate reader. By comparing with the absorbance of the control well, the percentage of viable cells was calculated, and CC50, the concentration required for the reduction of cell viability by 50%, was calculated.
For orientation: Tetrazolium dyes change colour on reduction, which living cells bring about.

In the next data set the test system is HBV. Put plainly: HBV DNA content in the supernatant of cell culture (real-time PCR). In kind it is cell-based, hepatitis B virus (HBV). As to conditions: Hepatitis B virus, HepG2.2.15, 192 h, inhibition of HBV DNA replication, HepG2.2.15 supernatant, 8 days. As to the method: as §1, §2, §3
HepG2.2.15 cells were treated with compounds at different concentrations for 8 days (the medium was exchanged on the 4th day), and the supernatant was aspirated, and the HBV DNA contained in the mature virus particles in the supernatant was quantitated by using a real-time PCR method.
1) The supernatant DNA from a 96-well plate, 200 μl/well, was collected, wherein the contents in the duplicate wells were collected into a same EP tube, and centrifuged at 4000 rcf for 5 min, and the supernatant was collected;
2) 200 μl of the supernatant was added into a 1.5 ml EP tube, added with 20 μl of proteinase K and 200 μl of Buffer AL (Qiagen, DNeasy® Blood & Tissue Kit), vortexed to be mixed thoroughly, and incubated at 56° C. for 10 min;
3) 200 μl of ethanol was added and vortexed to be mixed thoroughly;
4) all the liquid obtained from step 3) was added into a DNeasy Mini spin column (Qiagen, DNeasy® Blood & Tissue Kit) placed in a 2 ml waste liquid collection tube, and centrifuged at 6000 rcf for 1 min, and the supernatant was discarded;
5) the DNeasy Mini spin column was placed in a new 2 ml waste liquid collection tube, added with 500 μl of Buffer AW1 (Qiagen, DNeasy® Blood & Tissue Kit), and centrifuged at 6000 rcf for 1 min, and the supernatant was discarded;
6) the DNeasy Mini spin column was placed in a new 2 ml waste liquid collection tube, added with 500 μl of Buffer AW2, (Qiagen, DNeasy® Blood & Tissue Kit), and centrifuged at 20000 rcf for 3 min, and the supernatant was discarded;
7) the DNeasy Mini spin column was placed in anew 1.5 ml EP tube, 50 μl of Buffer AE (Qiagen, DNeasy® Blood & Tissue Kit) was pipetted and directly applied onto the membrane of the DNeasy Mini spin column, which was then left at room temperature for 5 min, and centrifuged at 6000 rcf for 1 min to elute the DNA from the membrane, the DNeasy Mini spin column was discarded, and the DNA sample was collected and stored at −20° C.
1) Standard curve: 1e^7-1e^4 IU/ml, the sample amount was 1 μl, a blank well was set so as to check whether the reaction system is polluted or not;
2) 1 μl of a DNA sample was added in sequence;
3) Addition of enzyme and reaction buffer: two tubes of the reaction solution were first added into the enzyme, mixed well and centrifuged slightly, placed on ice, added with the sample, followed by addition of 19 μl of the enzyme reaction solution, wherein, during the addition, the DNA sample should be sure of not being touched to cause contamination;
4) the sample was sealed with a sealing film and centrifuged;
Stage 2: 10 cycles • Step 1: 93° C., 45 s • Step 2: 55° C., 1 min Stage 3: 45 cycles • Step 1: 93° C., 30 s • Step 2: 55° C., 45 s
Detection: data were collected after completing the step 2 (55° C., 45 s) of the stage 3.
The experimental data were processed by using the Origin software and IC50 was calculated.
(In general: Real-time PCR tracks product formation cycle by cycle.)

As for `COc1ccc2c(=O)n(Cc3ccc(Cl)cc3)nc(-c3ccc(C)nc3F)c2c1` [Compound V-5], the CC50 at 8 days in data set [1] is more than 100 µM. The same compound returned an IC50 with HBV of 3.7 µM.
Regarding `COc1cc2c(-c3ccc(C)nc3F)nn(Cc3ccc(Cl)cc3)c(=O)c2cc1OC` [Compound V-6], the CC50 at 8 days in data set [1] was more than 100 µM. The compound further registered an IC50 in the data set with HBV of 2.6 µM.
In data set [1], `Cc1ccc(-c2nn(Cc3ccc(Cl)cc3)c(=O)c3ccc(C#N)cc23)c(F)n1` [Compound V-7] yielded a CC50 at 8 days of more than 100 µM. In the data set with HBV, this compound registered an IC50 of 0.9 µM.
The compound `Cc1ccc(-c2nn(Cc3ccc(Cl)cc3)c(=O)c3ccc(C(F)(F)F)cc23)c(F)n1` [Compound V-8] yielded a CC50 at 8 days in data set [1] of more than 100 µM. The compound further had an IC50 in the data set on HBV of 1.1 µM.
For the compound `Cc1ccc(-c2nn(Cc3ccc(Cl)cc3)c(=O)c3cc(C(F)(F)F)c(C(F)(F)F)cc23)c(F)n1` [Compound V-9], the CC50 at 8 days in data set [1] is more than 100 µM. Also, the IC50 with HBV came out at 1.3 µM.
In data set [1], `Cc1ccc(-c2nn(Cc3ccc(C#N)cc3)c(=O)c3cc(F)c(F)cc23)c(F)n1` [Compound V-10] gave a CC50 at 8 days of 47.9 µM. Further, the midpoint of inhibition with HBV, the IC50, lay at 0.7 µM.
The matching figures for `Cc1ccc(-c2nn(Cc3ccc(C#N)cc3)c(=O)c3cc(C)c(C)cc23)c(F)n1` [Compound V-11]: more than 100 µM and 1.2 µM.
`COc1cc2c(-c3ccc(C)nc3F)nn(Cc3ccc(C#N)cc3)c(=O)c2cc1OC` [Compound V-12] gave a CC50 at 8 days in data set [1] of more than 100 µM. Moreover, 4.5 µM corresponded to half-maximal inhibition in the data set with HBV (IC50).
In the same order, the values of `Nc1ncc(-c2nn(Cc3ccc(Cl)cc3)c(=O)c3ccccc23)cn1` [II-1] are 41.5 µM and 3.8 µM.
`N#Cc1ncc(-c2nn(Cc3ccc(Cl)cc3)c(=O)c3ccccc23)cn1` [II-2]: in data set [1], it took 32.4 µM to reach half-maximal cytotoxicity (CC50 at 8 days). For the same compound, the IC50 in the data set with HBV was 4.5 µM.
`COc1ncc(-c2nn(Cc3ccc(Cl)cc3)c(=O)c3ccccc23)cn1` [II-3] came in with a CC50 at 8 days in data set [1] of more than 100 µM. The compound also registered an IC50 in the data set on HBV of 8.8 µM.
The compound `Cc1ncc(-c2nn(Cc3ccc(Cl)cc3)c(=O)c3ccccc23)cn1` [II-4] came in with a CC50 at 8 days in data set [1] of 97.6 µM. In the data set with HBV, this compound showed an IC50 of 7.1 µM.
In the case of `Cc1cnc(-c2nn(Cc3ccc(Cl)cc3)c(=O)c3ccccc23)cn1` [III-1], the CC50 at 8 days in data set [1] was determined as 87.8 µM. The compound further registered an IC50 in the data set with HBV of 6.2 µM.
As for `N#Cc1ccc(Cn2nc(-c3cccnc3)c3ccccc3c2=O)cc1` [IV-1], the CC50 at 8 days in data set [1] is more than 100 µM. In the data set with HBV, this compound registered a concentration for half-maximal inhibition (IC50) of 5.4 µM.
The matching figures for `N#Cc1ccc(Cn2nc(-c3cccnc3F)c3ccccc3c2=O)cc1` [IV-2]: more than 100 µM and 1.18 µM.
In the same order, the values of `Cc1ncccc1-c1nn(Cc2ccc(C#N)cc2)c(=O)c2ccccc12` [IV-3] are more than 100 µM and 5.5 µM.
`N#Cc1ccc(Cn2nc(-c3cccnc3C#N)c3ccccc3c2=O)cc1` [IV-4] displayed a CC50 at 8 days in data set [1] of more than 100 µM. The compound also displayed an IC50 in the data set with HBV of 3.3 µM.
Compound `Cc1ccc(-c2nn(Cc3ccc(C#N)cc3)c(=O)c3ccccc23)c(F)n1` [IV-6] had a CC50 at 8 days in data set [1] of more than 100 µM. In addition, the IC50 in the data set with HBV was determined as 0.8 µM.
In the same order, the values of `N#Cc1ccc(Cn2nc(-c3ccc(N)nc3C#N)c3ccccc3c2=O)cc1` [IV-7] are more than 100 µM and 0.8 µM.
`CNc1ccc(-c2nn(Cc3ccc(C#N)cc3)c(=O)c3ccccc23)c(F)n1` [IV-8] returned a CC50 at 8 days in data set [1] of more than 100 µM. The IC50 in the data set on HBV is 0.9 µM.
In the same order, the values of `CN(C)c1ccc(-c2nn(Cc3ccc(C#N)cc3)c(=O)c3ccccc23)c(F)n1` [IV-9] are more than 100 µM and 1.3 µM.
With `CC(=O)Nc1ccc(-c2nn(Cc3ccc(C#N)cc3)c(=O)c3ccccc23)c(F)n1` [IV-10], in data set [1], it took 47.9 µM to reach half-maximal cytotoxicity (CC50 at 8 days). Moreover, inhibition with HBV was half-maximal at 1.7 µM (IC50).
In the same order, the values of `N#Cc1ccc(Cn2nc(-c3ccc(N4CCC4)nc3F)c3ccccc3c2=O)cc1` [IV-11] are 98.5 µM and 0.4 µM.
In the case of `CC(C)(C)Nc1ccc(-c2nn(Cc3ccc(C#N)cc3)c(=O)c3ccccc23)c(F)n1` [IV-12], the CC50 at 8 days in data set [1] worked out at 46.3 µM. This compound also registered an IC50 in the data set on HBV of 3.7 µM.

In general, CC50 refers to the concentration that lowers cell viability or growth by half. Low readings indicate harm at low concentration, high ones better tolerance by the cells. The IC50 is the concentration needed to halve the response being measured.
